# Experimental data: US11046700B2, “Substituted imidazo[1,2-a]pyrazines, pyrazolo[1,5-c]pyrimidines, pyrazolo[1,5-a]pyridines, and purines for the treatment of schistosomiasis” (Merck Patent GmbH, priority 2017, dated 2021)
# Where two headings read alike, the source gives them in different places.
# How the values were obtained:
# Assay type in all cases: cell-based
# [1] = tested on: S. mansoni juvenile worms; assay: In vitro assay, S. mansoni juvenile worms; conditions: Schistosoma mansoni, read-out: (b) Juvenile
# Procedure: (§1) The routine biological assays using adult or juvenile worms and cytotoxicity assays using MRC-5 cells have been disclosed previously in Mansour, N. R., et al. (2016). “High Throughput Screening Identifies Novel Lead Compounds with Activity against Larval, Juvenile and Schistosoma mansoni PLoS Negl Trap Dis 10(4): e0004659. Cytotoxicity assays using the HepG2 cell line were carried out as described in Molecular Diversity (2015) 19, 251-261.
# (b) S. mansoni juvenile worms
# HepG2 cell line = assay: Cytotoxicity against human HepG2 cell lines
# S. mansoni adult worms = assay: In vitro assay, S. mansoni adult worms; conditions: Schistosoma mansoni; S. mansoni adult worms, in vitro; read-out: (a) Adult
# Procedure: as §1
# (a) S. mansoni adult worms
# [2] = S. mansoni juvenile worms, in vitro
SMILES,"IC50 [1, 2]",(e) Cytotox HepG2 (HepG2 cell line),IC50 (S. mansoni adult worms),IC50 [1]
"Fc1c(-c2c(C3CC3)nc3cnc(-c4cccc(S(F)(F)(F)(F)F)c4)cn23)ccc2[nH]ncc12 [Example 46, 2-cyclopropyl-3-(4-fluoro-1H-indazol-5-yl)-6-(3-(pentafluoro-λ6-sulfaneyl)phenyl)imidazo[1,2-a]pyrazine]",36 nM,20.7 µM,–,–
"Fc1ccc(-c2cc3c(-c4ccc5[nH]ncc5c4F)c(C4CC4)nn3cn2)cc1C(F)(F)C(F)(F)F [Example 59, 2-Cyclopropyl-3-(4-fluoro-1H-indazol-5-yl)-5-(4-fluoro-3-pentafluoroethyl-phenyl)-pyrazolo[1,5-c]pyrimidine]",36 nM,–,66 nM,–
"Fc1ccc(-c2cn3c(-c4ccc5[nH]ncc5c4F)c(C4CC4)nc3cn2)cc1C(F)(F)F [Example 43, 2-cyclopropyl-3-(4-fluoro-1H-indazol-5-yl)-6-(4-fluoro-3-(trifluoromethyl)phenyl)imidazo[1,2-a]pyrazine]",110 nM,–,–,–
"Cc1nn2cnc(-c3ccc(F)c(C(F)(F)F)c3)cc2c1-c1c(F)cc(O)cc1F [Example 42, 3,5-difluoro-4-(5-(4-fluoro-3-(trifluoromethyl)phenyl)-2-methylpyrazolo[1,5-c]pyrimidin-3-yl)phenol]",110 nM,–,–,–
"Oc1ccc(-c2c(C3CC3)nc3cnc(-c4cccc(C(F)(F)F)c4)cn23)c(F)c1 [Example 14, 3-fluoro-4-[2-cyclopropyl-6-[3-(trifluoromethyl)phenyl]imidazo[1,2-a]pyrazin-3-yl]phenol]",230 nM,–,–,–
"CC(C)c1nc2cnc(-c3cccc(Br)c3)cn2c1-c1ccc2[nH]ncc2c1F [Example 73, 6-(3-Bromo-phenyl)-3-(4-fluoro-1H-indazol-5-yl)-2-isopropyl-imidazo[1,2-a]pyrazine]",27 nM,–,36 nM,–
"Oc1ccc(-c2c(C(F)F)nc3cnc(-c4cccc(C(F)(F)F)c4)cn23)c(F)c1 [Example 11, 3-fluoro-4-[2-difluoromethyl-6-[3-(trifluoromethyl)phenyl]imidazo[1,2-a]pyrazin-3-yl]phenol]",490 nM,–,–,–
"COc1cc(-c2c(C)nc3cnc(-c4cccc(C(F)(F)F)c4)cn23)ccc1O [Example 5, 2-methoxy-4-(2-methyl-6-(3-(trifluoromethyl)phenyl)imidazo[1,2-a]pyrazin-3-yl)]",1270 nM,–,520 nM,–
"Oc1cc(F)c(-c2c(CC(F)(F)F)nc3cnc(-c4ccc(F)c(C(F)(F)F)c4)cn23)c(F)c1 [Example 38, 3,5-difluoro-4-(6-(4-fluoro-3-(trifluoromethyl)phenyl)-2-(2,2,2-trifluoroethyl)imidazo[1,2-a]pyrazin-3-yl)phenol]",140 nM,–,–,–
"Cc1nc2cnc(-c3ccc(F)c(C(F)(F)F)c3)cn2c1-c1c(F)cc(OP(=O)(O)O)cc1F [Example 41, 3,5-difluoro-4-{6-[4-fluoro-3-(trifluoromethyl)phenyl]-2-methyl-imidazo[1,2-a]pyrazin-3-yl}phenoxyphosphonic acid]",–,6.8 µM,–,100 nM
"COc1ccc(-c2c(C)nn3cnc(-c4cccc(C(F)(F)F)c4)cc23)cc1O [Example 23, 2-methoxy-5-(2-methyl-5-(3-(trifluoromethyl)phenyl)pyrazolo[1,5-c]pyrimidin-3-yl)phenol]",790 nM,–,–,–
"Cc1nc2cnc(-c3cccc(C(F)(F)F)c3)cn2c1-c1c(F)cc(O)cc1F [Example 15, 3,5-difluoro-4-[2-methyl-6-[3-(trifluoromethyl)phenyl]imidazo[1,2-a]pyrazin-3-yl]phenol]",170 nM,8.4 µM,–,–
"COc1cc(O)ccc1-c1c(C(C)C)nc2cnc(-c3cccc(C(F)(F)F)c3)cn12 [Example 20, 4-(2-isopropyl-6-(3-(trifluoromethyl)phenyl)imidazo[1,2-a]pyrazin-3-yl)-3-methoxyphenol]",1040 nM,–,920 nM,–
"CCc1nc2cnc(-c3ccc(F)c(C(F)(F)F)c3)cn2c1-c1ccc2[nH]ncc2c1F [Example 37, 4-fluoro-5-{2-ethyl-6-[4-fluoro-3-(trifluoromethyl)phenyl]imidazo[1,2-a]pyrazin-3-yl}-1H-indazole]",110 nM,13.1 µM,–,–
"Cc1nc2cnc(-c3cccc(C(F)(F)F)c3)cn2c1-c1ccc(O)cc1 [Example 4, 4-[2-methyl-6-[3-(trifluoromethyl)phenyl]imidazo[1,2-a]pyrazin-3-yl]phenol]",1420 nM,–,490 nM,–
"Fc1ccc(-c2cn3c(-c4ccc5[nH]ncc5c4F)c(C(F)(F)F)nc3cn2)cc1Br [Example 85, 6-(3-Bromo-4-fluoro-phenyl)-3-(4-fluoro-1H-indazol-5-yl)-2-trifluoromethyl-imidazo[1,2-a]pyrazine]",7 nM,–,48 nM,–

SMILES,"IC50 [1, 2]",(e) Cytotox HepG2 (HepG2 cell line),IC50 (S. mansoni adult worms),IC50 [1]
"CC(C)c1nn2cnc(-c3ccc(F)c(C(F)(F)F)c3)cc2c1-c1ccc2[nH]ncc2c1F [Example 61, 3-(4-Fluoro-1H-indazol-5-yl)-5-(4-fluoro-3-trifluoromethyl-phenyl)-2-isopropylpyrazolo[1,5-c]pyrimidine]",60 nM,–,37 nM,–
"C#CCOc1cc(-c2cn3c(-c4ccc5[nH]ncc5c4F)c(C(F)(F)F)nc3cn2)ccc1F [Example 78, 3-(4-Fluoro-1H-indazol-5-yl)-6-(4-fluoro-3-prop-2-ynyloxy-phenyl)-2-trifluoromethyl-imidazo[1,2-a]pyrazine]",21 nM,–,10 nM,–
"Fc1ccc(-c2cn3c(-c4ccc5[nH]ncc5c4F)c(C4CCC4)nc3cn2)cc1C(F)(F)F [Example 76, 2-Cyclobutyl-3-(4-fluoro-1H-indazol-5-yl)-6-(4-fluoro-3-trifluoromethyl-phenyl)-imidazo[1,2-a]pyrazine]",36 nM,–,37 nM,–
"Oc1cc(F)c(-c2c(C3CC3)nn3cnc(-c4ccc(F)c(C(F)(F)F)c4)cc23)c(F)c1 [Example 60, 4-[2-Cyclopropyl-5-(4-fluoro-3-trifluoromethyl-phenyl)-pyrazolo[1,5-c]pyrimidin-3-yl]-3,5-difluoro-phenol]",21 nM,–,17 nM,–
"Cc1nc2cnc(-c3ccc(F)c(S(F)(F)(F)(F)F)c3)cn2c1-c1ccc2[nH]ncc2c1F [Example 64, 3-(4-Fluoro-1H-indazol-5-yl)-6-(4-fluoro-3-pentafluorosulfanyl-phenyl)-2-methyl-imidazo[1,2-a]pyrazine]",77 nM,–,26 nM,–
"CC(C)c1cc(-c2cn3c(-c4c(F)cc(O)cc4F)c(C4CC4)nc3cn2)ccc1F [Example 80, 4-[2-Cyclopropyl-6-(4-fluoro-3-isopropyl-phenyl)-imidazo[1,2-a]pyrazin-3-yl]-3,5-difluoro-phenol]",5 nM,–,4 nM,–
"Cc1nc2cnc(-c3cccc(S(F)(F)(F)(F)F)c3)cn2c1-c1c(F)cc(O)cc1F [Example 31, 3,5-difluoro-4-[2-methyl-6-[3-(pentafluorosulfanyl)phenyl]imidazo[1,2-a]pyrazin-3-yl]phenol]",100 nM,–,–,–
"Fc1ccc(-c2cn3c(-c4ccc5[nH]ncc5c4F)c(C4CC4)nc3cn2)cc1C(F)(F)C(F)(F)F [Example 54, 5-{2-cyclopropyl-6-[4-fluoro-3-(1,1,2,2,2-pentafluoroethyl)phenyl]imidazo[1,2-a]pyrazin-3-yl}-4-fluoro-1H-indazole]",37 nM,–,23 nM,–
"COc1ccc(-c2c(CC3CC3)nc3cnc(-c4cccc(C(F)(F)F)c4)cn23)cc1O [Example 26, 2-methoxy-5-[2-(cyclopropylmethyl)-6-[3-(trifluoromethyl)phenyl]imidazo[1,2-a]pyrazin-3-yl]phenol]",220 nM,–,–,–
"CCCc1nc2cnc(-c3cccc(C(F)(F)F)c3)cn2c1-c1ccc(OC)c(O)c1 [Example 18, 2-methoxy-5-[2-(propan-1-yl)-6-[3-(trifluoromethyl)phenyl]imidazo[1,2-a]pyrazin-3-yl]phenol]",290 nM,–,–,–
"CC(C)c1nc2cnc(-c3ccc(F)c(S(F)(F)(F)(F)F)c3)cn2c1-c1ccc2[nH]ncc2c1F [Example 68, 3-(4-Fluoro-1H-indazol-5-yl)-6-(4-fluoro-3-pentafluorosulfanyl-phenyl)-2-isopropyl-imidazo[1,2-a]pyrazine]",10 nM,–,11 nM,–
"Fc1c(-c2c(C(F)(F)F)nc3cnc(-c4cccc(C(F)(F)F)c4)cn23)ccc2[nH]ncc12 [Example 70, 3-(4-Fluoro-1H-indazol-5-yl)-2-trifluoromethyl-6-(3-trifluoromethyl-phenyl)-imidazo[1,2-a]pyrazine]",41 nM,–,25 nM,–
"Oc1ccc(-c2c(C(F)(F)F)nc3cnc(-c4cccc(C(F)(F)F)c4)cn23)c(F)c1 [Example 12, 3-fluoro-4-[2-trifluoromethyl-6-[3-(trifluoromethyl)phenyl]imidazo[1,2-a]pyrazin-3-yl]phenol]",250 nM,–,< 49 nM,–
"COc1ccc(-c2c(C3CC3)nc3cnc(-c4cccc(C(F)(F)F)c4)cn23)cc1O [Example 13, 2-methoxy-5-[2-cyclopropyl-6-[3-(trifluoromethyl)phenyl]imidazo[1,2-a]pyrazin-3-yl]phenol]",63 nM,–,72 nM,–
"COc1ccc(-c2c(C(C)C)nn3cnc(-c4cccc(C(F)(F)F)c4)cc23)cc1O [Example 25, 5-(2-isopropyl-5-(3-(trifluoromethyl)phenyl)pyrazolo[1,5-c]pyrimidin-3-yl)-2-methoxyphenol]",110 nM,–,–,–
"COc1ccc(-c2c(C(C)C)nc3cnc(-c4ccc(F)c(C(F)(F)F)c4)cn23)cc1O [Example 27, 2-methoxy-5-[2-(propan-2-yl)-6-[4-fluoro-3-(trifluoromethyl)phenyl]imidazo[1,2-a]pyrazin-3-yl]phenol]",149 nM,–,< 49 nM,–
